Measured values as given in patent publication US20160051493A1, “METHODS OF TREATMENT OF KERATINOCYTE-DERIVED LESIONS” (THE TRUSTEES OF COLUMBIA UNIVERSITY IN THE CITY OF NEW YORK, priority 2012, published 2016).
pEC50, pIC50: −log10 of the molar value. Entries after “also recorded” stand apart in the source; their conditions may differ. Read-outs that look alike come from different tables or passages of the source.

What was measured:
[1] = test system: normal human keratinocytes; test: Keratinocyte cell counts (DAPI), morphology and EdU proliferation assay after 24 h treatment; details: 24 hours
Experimental: (§1) Normal human keratinocytes were isolated from human foreskins by undergoing two enzymatic dissociation steps, first in dispase then in trypsin. Cells were cultured in EpiLife supplemented with human keratinocyte growth supplement (HKGS; Invitrogen). For all experiments with undifferentiated cells, keratinocytes were harvested or images at ˜75% confluency. Differentiation was induced by adding CaCl2 to the EpiLife media to reach a final [Ca2+] of 1.2 mM. Cells were typically cultured for 3 days under differentiation conditions before they were assayed. Keratinocytes were cultured for <5 passages. Purified Camphor (CAS #76-22-2), 2-APB (Tocris) or vehicle (1% EtOH)-containing media were used as indicated.
Cells were treated with 2-APB or camphor for 24 hours at 37° C., exposed to EdU for 45 min, fixed and stained with DAPI for cell counting. EdU Click-It assays (Invitrogen) were used to assess cell-cycle entry. The cells were then fixed and stained with DAPI. Three fields per well were assayed via a 20× objective and there were 4 wells per treatment in each experiment. EdU=5-ethynyl-2′-deoxyuridine.
As Ca^2+ triggers the commitment switch from proliferation to differentiation in keratinocytes, it was reasoned that increasing intracellular calcium by incubating keratinocytes in TRP agonists might be sufficient to induce this cell-fate switch in low-calcium growth media. To test this hypothesis, normal human keratinocytes were cultured for 24 hours under low-Ca^2+ conditions in the presence of low (12.5 μM), half-maximal (50 μM) and saturating (100 μM) concentrations of 2-APB (FIG. 3A) or camphor (0-8 mM) (FIG. 3E). These TRP agonists were chosen because they reliably elicited intracellular calcium signaling in normal human keratinocytes (FIG. 1A-1E).
As camphor can activate both TRPV3 and TRPV1 channels, these experiments were repeated in the presence of a specific TRPV1 antagonist, AMG-9810 (Gavva et al., 2005).

TRPA1 = details: Inhibition; read-out: Effective concentration IC50; cited from earlier work
SCC-13 cells [2] = test: Live-cell calcium imaging of SCC cell line SCC-13; type: cell-based, human; details: 10 mM camphor; compared with proliferating keratinocytes
Experimental: (§2) Human keratinocytes and SCC cells were washed in Ringer's solution (in mM: NaCl 140, KCl 5, D-glucose 10, HEPES 10, CaCl2 2, MgCl2 2, pH 7.2) and loaded with 5 μM fura-2AM and 1 μM pluronic (Invitrogen) for 30 minutes in the dark. During live-cell imaging, saturating concentrations of TRP agonists (10 mM Camphor, 100 μM 2-APB 1 μM Capsaicin, 300 μM Mustard oil or 3 μM 4αPDD) in Ringer's were used. Cells were imaged for 20 s to establish a baseline and then acutely treated with each agonist for 60 seconds. Imaging was performed on an Olympus IX81 microscope with a 20× (NA 0.17) objective and a Hamamatsu ORCA-R2 camera. 340- and 380-nm excitation and 540-nm emission filters were used to capture fura-2 fluorescence. Data are expressed as a ratio of fluorescent signals (340/380). All data acquisition was performed in MetaFluor. Data analysis was performed with custom algorithms in IgorPro. Cells with baseline levels ±2 SD above the mean were excluded from analysis as unhealthy. Responders were designated as cells whose 340/380 ratio was ≧20% above baseline.
(§3) Moreover, their responses to camphor mirror their respective levels of TRP channel expression.

keratin 10 (K10) = test: Western blot of keratin 10 in epidermal lysates after topical camphor; type: in vivo, FVB mice; details: 5 days
Experimental: To determine whether topical camphor treatment promotes keratinocyte differentiation in vivo, a separate cohort of adult female FVB mice were treated twice daily for a period of 5 days with increasing concentrations of topical camphor (0, 15%, 20% or 30% (wt/wt) camphor in acetone; N=3-4 mice per group). One day after the final topical dose, mice were sacrificed and epidermal lysates were prepared for immunoblot analysis according to standard protocols (Owens et al., J. Invest. Dermatol. 1996). […] Protein levels were detected by peroxidase activated luminol exposure to X-ray film and estimated by densitometry using NIH-Image J software. Levels of K10 were normalized to levels of beta-tubulin for each sample; therefore, data are expressed as the ratio of K10 to beta-tubulin (K10/beta-tubulin). […]
To determine whether topical camphor treatment promotes keratinocyte differentiation in vivo, adult female FVB mice (n=3-4 per group) were treated twice daily for a period of 5 days with increasing concentrations of topical camphor (15%, 20% or 30% (wt/wt)) or vehicle only. […] It was determined that topical camphor treatment upregulates levels of a keratinocyte terminal differentiation marker in vivo.

[3] = test system: normal human epidermal keratinocytes; test: Ratiometric fura-2 live-cell calcium imaging of keratinocytes; type: cell-based; details: for % Responders (differentiated) Mean ± SEM: differentiated in 1.2 mM Ca2+, 4αPDD 3 μM, camphor 10 mM, 2-APB 100 μM; for % Responders (differentiated) Mean ± SEM / % Responders (undifferentiated) Mean ± SEM or SD: responders F340:F380 increase ≧20%; for % Responders (undifferentiated) Mean ± SEM or SD: saturating agonist (4αPDD 3 μM, camphor 10 mM, 2-APB 100 μM, capsaicin 1 μM, mustard oil 300 μM), SD for capsaicin and mustard oil
Experimental: as §1, §2
TRP channels are selectively activated by endogenous and exogenous ligands at micromolar to millimolar concentrations. Since TRP channel activity increases over this range to allow graded Ca^2+ influx, receptor activity levels can be monitored by live-cell Ca^2+ imaging. A ratiometric calcium indicator (Fura-2) was employed to determine whether a panel of TRP-channel agonists elicited cytoplasmic calcium increases in human epidermal keratinocytes. (FIG. 1A-1E, FIG. 2A-2B, and Table 3).
Normal human keratinocytes were cultured in low-calcium media to promote proliferation or in 1.2-mM calcium media to induce differentiation. For live-cell imaging, keratinocytes were then washed and bathed in Ringer's solution containing 2 mM calcium so that calcium signals could be directly compared between cell populations.
In keratinocytes, increased intracellular calcium stimulates the terminal differentiation process. To determine whether camphor oil and its abundant constituents are directly bioactive on epithelial keratinocytes, a ratiometric Ca2+ indictor (Fura-2) was employed to test whether a panel of terpenes elicited cytoplasmic Ca2+ increases in undifferentiated human epidermal keratinocytes (FIG. 19A-19C). Keratinocytes were cultured according to our standard methods. For live-cell imaging, keratinocytes were bathed in Ringer's solution containing 2 mM Ca2+.

[4] = cited from earlier work
TRPV1 = TRPV1 (Rattus norvegicus, UniProt O35433); details: Activation; cited from earlier work
Chain of TRPV1 (O35433 whole entry): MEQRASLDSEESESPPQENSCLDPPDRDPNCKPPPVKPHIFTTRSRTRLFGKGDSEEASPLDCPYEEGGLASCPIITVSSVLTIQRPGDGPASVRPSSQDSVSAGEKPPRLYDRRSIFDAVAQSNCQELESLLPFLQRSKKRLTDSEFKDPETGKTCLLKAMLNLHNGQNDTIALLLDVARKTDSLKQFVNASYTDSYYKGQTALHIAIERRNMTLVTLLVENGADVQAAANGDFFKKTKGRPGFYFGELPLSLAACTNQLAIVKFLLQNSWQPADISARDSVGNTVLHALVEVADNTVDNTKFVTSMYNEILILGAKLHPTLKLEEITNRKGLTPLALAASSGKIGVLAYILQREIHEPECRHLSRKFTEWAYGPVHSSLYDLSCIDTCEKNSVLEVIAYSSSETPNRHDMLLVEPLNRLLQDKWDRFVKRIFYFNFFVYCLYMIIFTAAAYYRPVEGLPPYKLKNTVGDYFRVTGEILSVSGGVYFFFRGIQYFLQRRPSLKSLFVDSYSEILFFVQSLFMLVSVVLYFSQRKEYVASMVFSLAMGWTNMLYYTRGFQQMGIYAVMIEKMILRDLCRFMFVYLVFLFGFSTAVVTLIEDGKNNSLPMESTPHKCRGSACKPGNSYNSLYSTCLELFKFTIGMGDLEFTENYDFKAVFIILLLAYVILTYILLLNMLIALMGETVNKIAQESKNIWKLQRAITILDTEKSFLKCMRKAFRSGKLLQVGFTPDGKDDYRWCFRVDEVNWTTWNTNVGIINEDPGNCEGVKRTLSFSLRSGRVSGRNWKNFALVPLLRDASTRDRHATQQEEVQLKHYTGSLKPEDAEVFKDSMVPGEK

[5] = cited from earlier work; remark: listed apart in the source
[6] = cited from earlier work; remark: listed apart in the source
TRPV3 = details: Activation, cited from earlier work
SCC-39 cells [7] = test: Live-cell calcium imaging of SCC cell line SCC-39; type: cell-based, human; details: 10 mM camphor; compared with SCC-13 cells
Experimental: as §2, §3

ORAI1 = ORAI1 (Homo sapiens, UniProt Q96D31); details: Inhibition; cited from earlier work
Chain of ORAI1 (Q96D31 whole entry, species assumed): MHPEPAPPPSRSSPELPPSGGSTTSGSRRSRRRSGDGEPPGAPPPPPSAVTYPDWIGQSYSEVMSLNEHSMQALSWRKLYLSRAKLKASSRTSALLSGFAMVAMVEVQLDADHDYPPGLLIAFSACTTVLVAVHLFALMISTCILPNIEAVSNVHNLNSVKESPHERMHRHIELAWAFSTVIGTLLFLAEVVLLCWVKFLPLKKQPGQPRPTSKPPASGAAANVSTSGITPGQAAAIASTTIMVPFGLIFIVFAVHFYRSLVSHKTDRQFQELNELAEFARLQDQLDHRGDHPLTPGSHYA

human keratinocytes = details: 50 μM, 7 days
Experimental: (§4) Organotypic human skin cultures and primary SCC lines were isolated from human SCCs and cultured as previously described (Bachelor et al., 2011). In brief, human fibroblasts were seeded in a collagen matrix on a 70 μm filter insert and incubated at 37° C. for 5-7 days. Human keratinocytes or SCC cells were then seeded on the apical surface of the fibroblast-collagen matrix and cultured for 2 days submerged in media to allow monolayer formation. The media was then removed from the apical surface (raising), exposing the keratinocytes or SCC cells to air. The cultures were maintained in this fashion for up to 14 days, and the media to the fibroblasts below was changed every 2-3 days. At the time of raising, 50 μM 2-APB or vehicle (1% EtOH) was added to the media.
Sections were fixed in 4% paraformaldehyde, paraffin embedded and sectioned at 8 μm. Hematoxylin and Eosin (H&E) stained sections were imaged with a bright field microscope equipped with a 10× (0.3 NA) and 20× (0.4 NA) objectives and an Axiocam color CCD camera (Zeiss AxioObserver.Z1). Epidermal thickness was assessed by measuring the nucleated layers with ImageJ software (NIH ImageJ). Number of invading cells was determined by counting the number of round nuclei below the basement membrane per 10× field (fibroblast nuclei are flatten and were excluded). […] Six random frames per section were quantified.

TRPC1 = TRPC1 (Homo sapiens, UniProt P48995); details: cited from earlier work
Chain of TRPC1 (P48995 whole entry, species assumed): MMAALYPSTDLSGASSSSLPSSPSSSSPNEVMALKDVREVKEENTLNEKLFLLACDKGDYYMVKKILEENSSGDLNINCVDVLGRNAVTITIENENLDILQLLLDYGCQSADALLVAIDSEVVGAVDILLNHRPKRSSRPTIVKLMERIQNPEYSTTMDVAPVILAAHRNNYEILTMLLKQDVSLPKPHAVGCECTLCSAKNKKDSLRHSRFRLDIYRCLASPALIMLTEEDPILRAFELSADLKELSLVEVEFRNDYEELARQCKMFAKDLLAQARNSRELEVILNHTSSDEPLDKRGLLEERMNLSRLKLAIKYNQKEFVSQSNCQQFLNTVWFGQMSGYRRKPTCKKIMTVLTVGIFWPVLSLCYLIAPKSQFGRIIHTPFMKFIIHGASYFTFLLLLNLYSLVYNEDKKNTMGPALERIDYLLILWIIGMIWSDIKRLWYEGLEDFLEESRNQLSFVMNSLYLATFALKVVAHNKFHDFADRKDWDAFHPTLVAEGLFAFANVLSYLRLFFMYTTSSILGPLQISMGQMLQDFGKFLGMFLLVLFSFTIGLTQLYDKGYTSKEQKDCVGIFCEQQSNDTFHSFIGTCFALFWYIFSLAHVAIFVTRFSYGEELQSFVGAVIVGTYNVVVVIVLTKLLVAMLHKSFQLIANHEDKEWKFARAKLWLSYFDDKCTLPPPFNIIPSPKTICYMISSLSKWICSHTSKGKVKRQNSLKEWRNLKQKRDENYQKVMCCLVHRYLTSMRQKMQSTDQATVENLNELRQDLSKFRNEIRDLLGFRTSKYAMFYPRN

SCC-73 cells = details: 50 μM, 14 days
Experimental: as §4
(§5) Sections were fixed in 4% paraformaldehyde, paraffin embedded and sectioned at 8 μm. Hematoxylin and Eosin (H&E) stained sections were imaged with a bright field microscope equipped with a 10× (0.3 NA) and 20× (0.4 NA) objectives and an Axiocam color CCD camera (Zeiss AxioObserver.Z1). Epidermal thickness was assessed by measuring the nucleated layers with ImageJ software (NIH ImageJ). Number of invading cells was determined by counting the number of round nuclei below the basement membrane per 10× field (fibroblast nuclei are flatten and were excluded). Four non-serial paraffin sections per experiment were examined. Six random frames per section were quantified.
(§6) As TRP-channels are expressed in human SCC keratinocytes and TRP agonists arrest keratinocyte proliferation, it was reasoned that TRP agonists might be candidates for SCC-targeted therapy. To test this notion, organotypic human skin cultures were seeded with SCC cells.

SCC-39 cells [8] = details: 50 μM, 14 days
Experimental: as §4, §5, §6

SCC-13 cells [9] = details: 50 μM, 14 days
Experimental: as §4, §5, §6

[10] = test system: keratinocyte differentiation genes (LOR, FLG, IVL, TGM3); details: 50 μM, 24 hours
From the text: RNA was isolated using RNeasy Kit (Qiagen) and reversed transcribed. Four technical replicates were run for each primer set and cDNA sample using SYBR Green (Applied Biosystems) for quantitative readout. Complementary DNA was synthesized with oligo-dT primers and SuperScript III (Invitrogen). Primers were generated in Primer3. Primer pairs were optimized for qPCR and validated in control specimens. […] Melting curves were generated for all products to confirm a single amplicon for each product. To determine gene expression in each sample, cycle thresholds (CT) of the gene of interest were normalized to the reference gene GAPDH (ΔCT). Fold change was determined using the ΔΔCT method where vehicle or growth conditions were used as the calibrator (ΔΔCT=[(CT(target gene)−CT(reference gene)]−[CT(calibrator)]−CT(reference gene)]. All gene amplifications were performed in quadruplicate.

skin tumors = details: mouse, in vivo; cited from earlier work
DNA = details: cited from earlier work

Structure (SMILES): CC12CCC(CC1=O)C2(C)C (racemic) [Camphor, 1,7,7 Trimethylbicyclo[2.2.1]heptan-2-one]
- concentration that arrests proliferation without inducing necrotic changes [1]: 4 to 8 mM
- pIC50 (TRPA1): 4.17
- camphor-evoked cytoplasmic calcium signals (SCC-13 cells [2]): increased
- expression of K10 (keratin 10 (K10); 15%, 20% or 30% (wt/wt) topical twice daily): increased with camphor treatment in a dose-dependent manner; also recorded: upregulates
- K10 protein levels (K10/beta-tubulin) versus lower concentrations or vehicle (keratin 10 (K10); 30% (wt/wt) topical twice daily): significantly higher
- proportion of cells showing Ca2+ increases, differentiated versus proliferating keratinocytes ([3]; 10 mM camphor): 5.7 fold
- % Responders (differentiated) Mean ± SEM [3]: 37.5 ± 15.7%
- magnitude of camphor-evoked responses, increase over baseline ([3]; differentiated keratinocytes): 78±1%
- magnitude of camphor-evoked responses, increase over baseline ([3]; growth conditions): 55±1%
- % Responders (undifferentiated) Mean ± SEM or SD ([3]; growth conditions): 6.5 ± 2.8%
- sensation on skin of volunteers ([4]; 20% solution in alcohol, normal skin temperatures (Green 1990)): no significant sensation of irritation or pain
- doses reported to cause skin irritation as well as toxicity when ingested ([4]; in vivo): > 20%
- Effective concentration Range (TRPV1): Range = 1-10 mM
- solubility in water [5]: slightly soluble
- absorption ([6]; after inhalation or dermal exposure (Baselt and Cravey 1990)): well absorbed
- plasma concentrations ([6]; low-dose (46.80 mg) dermal application (Martin et al. 2004)): low plasma concentrations
- Effective concentration Range (TRPV3): Range = 2-10 mM
- camphor-evoked calcium responses (SCC-39 cells [7]): significantly fewer

Structure (SMILES): NCCOB(c1ccccc1)c1ccccc1 [2-APB, 2-aminoethoxydiphenyl borate]
- Effective concentration Range (ORAI1): Range = 5-50 μM
- EdU incorporation ([1]; 12.5 μM): significant increased
- cell population compared with vehicle-treated controls ([1]; 12.5 μM, low-Ca2+, one set of primary keratinocytes): 325+/−5%
- EdU incorporation (cell-cycle arrest) ([1]; 50 μM): completely inhibited
- cell number ([1]; 50 μM): slight reduction
- keratinocyte morphology and cell numbers (cytotoxicity) ([1]; 100 μM): necrotic morphological changes and a loss of cell numbers
- keratinocyte morphology ([1]; 12.5 or 50 μM): indistinguishable from vehicle-treated cells
- concentration that arrests proliferation without inducing necrotic changes [1]: 0.05 mM
- nucleated epidermal layers (human keratinocytes): one-third reduction
- Effective concentration Range (TRPC1; Activation): Range = 5-10 μM
- Effective concentration Range (TRPC1; Inhibition): Range = 50-100 μM
- % Responders (differentiated) Mean ± SEM [3]: 13.0 ± 7.2%
- % Responders (undifferentiated) Mean ± SEM or SD ([3]; growth conditions): 2.5 ± 0.9%
- invasive nature and growth of tumor cells (SCC-73 cells): dramatically reduced
- tumor thickness (SCC-73 cells): reduced tumor thickness
- inhibition of cell invasion versus vehicle-treated cultures (SCC-39 cells [8]): > 93%
- reduction of tumor formation above the dermis (SCC-39 cells [8]): > 37%
- tumor thickness (SCC-39 cells [8]): reduced tumor thickness
- reduction of tumor formation above the dermis (SCC-13 cells [9]): > 37%
- tumor thickness (SCC-13 cells [9]): reduced tumor thickness
- Effective concentration Range (TRPV3): Range = 3.2-320 μM
- pEC50 (TRPV3; read-out: Effective concentration EC50): 4.55
- involucrin (IVL) expression [10]: little change
- transglutaminase 3 (TGM3) expression [10]: little change
- FLG transcript level induction versus vehicle ([10]; low-calcium growth media): more than 15 fold
- LOR transcript level induction versus vehicle ([10]; low-calcium growth media): more than 15 fold

Structure (SMILES): Nc1ccc(C(=O)O)cc1 [p-Aminobenzoic acid]
- Results of safety: against skin tumors in mice (skin tumors): Protects
- Results of safety: DNA defects (DNA): increase
